Results published in patent publication US5212072A, “Polypeptides complementary to peptides or proteins having an amino acid sequence or nucleotide coding sequence at least partially known and methods of design therefor” (Board of Regents, The University of Texas System, priority 1991, dated 1993).
“And” between values parts separate entries of the source, which are not always exact repeats. Equal entries are not always repeated. Where no end group is shown, it is not given here.

Columns and labels:
[1] = tested on: LHRH-stimulated release of LH from pituitary cells; test: Reverse hemolytic plaque assay, LHRH-stimulated LH release from pituitary cells; format: cell-based, rat; details: Exp. 1 (Pre); 5x10^-10 M LHRH + peptide 10^-4 M
Description: A reverse hemolytic plaque assay (Smith, et al.), Method in Enzymology, 124, p.
Plaques were analyzed by determining plaque area with an image analysis (Bioguant or Image Technology Corp. Model 300) of ^125×-500 × microscopic enlargements.

I^125 ACTH (1-39) = target: T1, I^125 ACTH (1-39) (Homo sapiens, UniProt P01189); test: 125I-ACTH binding to peptide-coated microtiter wells; details: for Bound CPM 125I-ACTH: coated wells; for Bound CPM 125I-ACTH + excess ACTH: excess unlabelled ACTH
T1 construct: I^125 ACTH (1-39) (New England Nuclear Boston, Mass.); purchased New England Nuclear, Boston, Mass
T1 sequence (P01189 138-176 limits assumed): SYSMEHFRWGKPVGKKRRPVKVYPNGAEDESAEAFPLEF
Description: Utilizing techniques described in Example 1B, polyvinyl microtiter wells were coated with 3'-5' HTCA from a 1 mM solution thereof or with BSA.
The BSA and 3'-5' HTCA coated wells were washed and then treated with one of three solutions of I^125 ACTH (1-39) (New England Nuclear Boston, Mass.) having different concentrations. After a forty five minute incubation period the solution was removed and the microtiter wells extensively washed. The microtiter wells were separated and assayed for iodine^125 content in a Beckman Gamma 5500 gamma counter. Bound ^125 I-ACTH was measured in duplicate at three concentrations in the absence and presence of excess unlabelled ACTH.
Utilizing the cRNA sequence and HTCA sequence shown in Table 8 of Example 1A, a series of peptides having a carboxy-terminal portion of the HTCA amino acid were synthesized. A pentamer (5-mer) contained the amino acid sequence: H^2 N-Phe-His-Gly-Val-Arg-COOH. A decamer (10-mer) contained the amino acid sequence: H^2 N-[…]COOH. A twenty membered peptide (20-mer) contained the amino acids sequence: H2 N-[…] Val-ArQ-COOH. Each of these peptides was used to coat microtiter wells and the coated wells tested for the ability to hind ^125 I-ACTH as described in Example 1C.
A 24-mer HTCA variant (R-HTCA) with reversed amino acid sequence directionality (amino-terminal and carboxy-terminal ends being reversed) was synthesized and had the following sequence: H2 N-[…] Arg-His-Leu-His-Val-Gly-COOH. The well-coating and ^125 I-ACTH binding procedures were performed as described in Example 1-C and the resultant data shown in Table 11.

angiotensin II receptors = test: Binding of [125I] angiotensin II to isolated hepatic receptor; set-up: species or system Rabbit; details: concentration inhibiting binding of radiolabelled angiotensin II by 50%; 0.25 nM [125I] angiotensin II; 60 minutes 20 C
Description: Inhibition of angiotensin II binding to angiotensin II receptors by complementary peptides was tested with measurement through the use of radioactive angiotensin II. Rabbit livers were homogenized, and were centrifuged in order to isolate particles sedimenting between 1,000 and 100,000 xg. Binding activity was solublized with 1% digitonin, followed by ammonium sulfate fractionation between 49 and 65% satuation followed by DEAE- cellulose chromatography at pH 7.5 using a linear gradient between 0.0 and 0.3 M KCl. The partially purified, solubilized receptor preparation bound 17 pmoles of angiotensin II per […] protein when analyzed by Scatchard analysis, indicating a purity of approximately 0.1%.
The standard assay for binding of angiotensin II to the receptor is as follows: The complete system (150 ul) contains 30 mM Tris-HCl, pH 7.5, 2.5 mM K2 EDTA, 0.2 mM PCMS, 0.25 nM [^125 I] angiotensin II ca. 100,000 cpm), 100 ug BSA, 0.25% (V/V) Brij 99 and 30 ug of partially purified receptor. […] Tubes are vortexed and then allowed to stand 10 minutes at 4° C., after which they are centrifuged and their supernatants, containing protein-bound angiotensin II, are counted.
The complete system under these conditions regularly yields about 10,000 cpm of bound radioactivity. […] Residual binding of radioactivity in this control was 35-45%. […]

ACTH (1-24) = target: T2, ACTH (1-24) (Homo sapiens, UniProt P01189); test: ELISA binding of ACTH (1-24) to HTCA-coated microtiter wells
T2 construct: 10 ug synthetic ACTH (1-24) in PBS-Tween buffer; purchased Organon (West Orange, N.J.); host or cells: chemical synthesis
Description: From 1 to 25 micrograms (ug) per well of HTCA or insulin in carbonate-bicarbonate coating buffer were added to 96 well round bottom microtiter plates and incubated at 4° C. for 8 hr. The plates were then washed with phosphate buffered saline PBS)-Tween 20 (Sigma Chemical Co., St. Louis, Mo.) buffer.
To the insulin-coated wells and to some of the HTCA-coated wells was added 10 ug synthetic ACTH (1-24) in PBS-Tween buffer. Control wells (HTCA alone) contained only PBS-Tween. The plates were incubated at room temperature for 2 hr. and then washed three times with PBS-Tween buffer. […] Following 3 washes with PBS-Tween buffer, alkaline phosphatase-conjugated goat anti-rabbit Ig G (Miles Laboratories, Elkharbt, Ind.) in PBS-Tween buffer (1:300 dilution was added. After inculation at room temperature for 1 hr, the plates were washed three times with PBS-Tween buffer and each well was treated with 200 microliters (ul) of p-nitrophenyl phosphate (1 mg/ml in carbonate-bicarbonate buffer) for 11/2 hr. at room temperature. The enzymatic reaction was then stopped by the addition of 3N NaOH (50 ul) to each well and the optical absorbance of p-nitrophenol the alkaline phosphatase product, was measured at 405 nm. The ACTH bound to the coated microtiter wells was measured by this enzyme-linked immunoabsorbent assay (EL1SA). […]

Bound CPM 125I-ACTH (I^125 ACTH (1-39); 1:3 dilution 125I-ACTH) | Bound CPM 125I-ACTH + excess ACTH (I^125 ACTH (1-39); 1:3 dilution 125I-ACTH) | Bound CPM 125I-ACTH (I^125 ACTH (1-39); 1:9 dilution 125I-ACTH) | Bound CPM 125I-ACTH + excess ACTH (I^125 ACTH (1-39); 1:9 dilution 125I-ACTH) | Bound CPM 125I-ACTH (I^125 ACTH (1-39); conc 125I-ACTH) | Bound CPM 125I-ACTH + excess ACTH (I^125 ACTH (1-39); conc 125I-ACTH) | Compound | further results
 |  |  |  |  |  | C[C@H](N)C(=O)NCC(=O)N[C@H]1CSSC[C@@H](C(=O)O)NC(=O)[C@H](CO)NC(=O)[C@H]([C@@H](C)O)NC(=O)[C@H](Cc2ccccc2)NC(=O)[C@H]([C@@H](C)O)NC(=O)[C@H](CCCCN)NC(=O)[C@H](Cc2c[nH]c3ccccc23)NC(=O)[C@H](Cc2ccccc2)NC(=O)[C@H](Cc2ccccc2)NC(=O)[C@H](CC(N)=O)NC(=O)[C@H](CCCCN)NC1=O [Somatostatin] | plaque area, percentage response to control (5x10^-10 M LHRH) [1]: 103%
3391 CPM and 2931 CPM | 132 CPM and 143 CPM | 872 CPM and 1062 CPM | 62 CPM and 58 CPM | 8,927 CPM and 9,072 CPM | 345 CPM and 350 CPM | APAEVFHGVR [10-mer] | 
 |  |  |  |  |  | Ac-KGVYIHAL-NH2 [CCA-AII (Ac, Am), Ac--LYS--GLY--VAL--TYR--ILE--HIS--ALA--LEU--Am] | ID50 (angiotensin II receptors): 3,100 nM
3,514 CPM and 3,655 CPM | 97 CPM and 95 CPM | 995 CPM and 993 CPM | 56 CPM and 52 CPM | 10,252 CPM and 11,388 CPM | 233 CPM and 245 CPM | FHGVR [5-mer, H^2 N-Phe-His-Gly-Val-Arg-COOH] | 
 |  |  |  |  |  | GLUGLU-VAL-LYS-GLY-VAL-TYR-ILE-HIS-ALA-LEU (EEVKGVYIHAL; printed: GLUGLU-VAL-LYS-GLY-VAL-TYR-ILE-HIS-ALA-LEU) [CCA-AI] | ID50 (angiotensin II receptors): 490 nM
 |  |  |  |  |  | GVHLHRAPLLAHRLAPAEVFHGVR [HTCA] | specific part of ACTH-HTCA binding (ACTH (1-24); wells coated 3.7 nmol/well HTCA, ELISA): about 90%
613 CPM and 625 CPM | 113 CPM and 83 CPM | 238 CPM and 215 CPM | 39 CPM and 48 CPM | 1978 CPM and 1768 CPM | 229 CPM and 213 CPM | HRAPLLAHRLAPAEVFHGVR [20-mer] | 
590 CPM | 287 CPM and 299 CPM |  | 191 CPM and 183 CPM |  | 616 CPM and 615 CPM | RMRYLVKATPFGHPFFAAGHFHMG [3'-5' HTCA] | binding of 125I-ACTH to coated peptide (in words) (I^125 ACTH (1-39)): binds
2,997 CPM and 3,209 CPM | 140 CPM and 121 CPM | 1,101 CPM and 1,161 CPM | 65 CPM and 69 CPM | 10,392 CPM and 10,709 CPM | 303 CPM and 325 CPM | RVGHFVEAPALRHALLPARHLHVG [R-HTCA] | binding of 125I-ACTH to coated peptide (in words) (I^125 ACTH (1-39)): significant affinity for ACTH
 |  |  |  |  |  | insulin: control coating protein [reference compound] | binding of synthetic ACTH (1-24) to coated wells (ACTH (1-24); 10 ug ACTH (1-24), coating 1 to 25 ug/well): nor does ACTH bind
